# Test results from ChEMBL document CHEMBL4020788, “Synthesis, SAR and molecular docking studies of benzo[d]thiazole-hydrazones as potential antibacterial and antifungal agents” (2017).
# Calls of active or inactive are those of the source. The calls are words filed in the database; no cut-off is given here.
# Key:
# Format in all cases: functional
# Fusarium verticillioides [1] = assay: Antifungal activity against Fusarium moniliforme at 75 ug/ml after 48 hrs by agar well diffusion method
# Klebsiella pneumoniae [2] = assay: Antibacterial activity against Klebsiella pneumoniae at 50 ug/ml after 24 hrs by agar well diffusion method; conditions: read-out: DIZ
# Aspergillus niger [3] = assay: Antifungal activity against Aspergillus niger at 50 ug/ml after 48 hrs by agar well diffusion method; conditions: read-out: DIZ
# Escherichia coli [4] = assay: Antibacterial activity against Escherichia coli at 100 ug/ml after 24 hrs by agar well diffusion method; conditions: read-out: DIZ
# Staphylococcus aureus [5] = assay: Antibacterial activity against Staphylococcus aureus at 50 ug/ml after 24 hrs by agar well diffusion method
# Aspergillus niger [6] = assay: Antifungal activity against Aspergillus niger at 75 ug/ml after 48 hrs by agar well diffusion method; conditions: read-out: DIZ
# Fusarium oxysporum [7] = assay: Antifungal activity against Fusarium oxysporum at 50 ug/ml after 48 hrs by agar well diffusion method
# Escherichia coli [8] = assay: Antibacterial activity against Escherichia coli at 50 ug/ml after 24 hrs by agar well diffusion method; conditions: read-out: DIZ
# Staphylococcus aureus [9] = assay: Antibacterial activity against methicillin resistant Staphylococcus aureus MRSA090 at 25 ug/ml after 24 hrs by agar well diffusion method; conditions: MRSA090, 24 h, read-out: DIZ
# Klebsiella pneumoniae [10] = assay: Antibacterial activity against Klebsiella pneumoniae at 100 ug/ml after 24 hrs by agar well diffusion method; conditions: read-out: DIZ
# Staphylococcus aureus [11] = assay: Antibacterial activity against Staphylococcus aureus at 75 ug/ml after 24 hrs by agar well diffusion method
# Fusarium verticillioides [12] = assay: Antifungal activity against Fusarium moniliforme at 50 ug/ml after 48 hrs by agar well diffusion method
# Bacillus subtilis [13] = assay: Antibacterial activity against Bacillus subtilis incubated for overnight by microdilution method
# Staphylococcus aureus [14] = assay: Antibacterial activity against Staphylococcus aureus at 25 ug/ml after 24 hrs by agar well diffusion method
# Klebsiella pneumoniae [15] = assay: Antibacterial activity against Klebsiella pneumoniae at 25 ug/ml after 24 hrs by agar well diffusion method; conditions: read-out: DIZ
# Staphylococcus aureus [16] = assay: Antibacterial activity against methicillin resistant Staphylococcus aureus MRSA090 incubated for overnight by microdilution method
# Staphylococcus aureus [17] = assay: Antibacterial activity against methicillin resistant Staphylococcus aureus MRSA090 at 100 ug/ml after 24 hrs by agar well diffusion method; conditions: MRSA090, 24 h, read-out: DIZ
# Bacillus subtilis [18] = assay: Antibacterial activity against Bacillus subtilis at 100 ug/ml after 24 hrs by agar well diffusion method; conditions: read-out: DIZ
# Staphylococcus aureus [19] = assay: Antibacterial activity against Staphylococcus aureus incubated for overnight by microdilution method
# Fusarium oxysporum [20] = assay: Antifungal activity against Fusarium oxysporum at 25 ug/ml after 48 hrs by agar well diffusion method
# Fusarium oxysporum [21] = assay: Antifungal activity against Fusarium oxysporum at 100 ug/ml after 48 hrs by agar well diffusion method
# Fusarium oxysporum [22] = assay: Antifungal activity against Fusarium oxysporum at 75 ug/ml after 48 hrs by agar well diffusion method
# Aspergillus niger [23] = assay: Antifungal activity against Aspergillus niger at 100 ug/ml after 48 hrs by agar well diffusion method; conditions: read-out: DIZ
# Staphylococcus aureus [24] = assay: Antibacterial activity against Staphylococcus aureus at 100 ug/ml after 24 hrs by agar well diffusion method
# Escherichia coli [25] = assay: Antibacterial activity against Escherichia coli at 75 ug/ml after 24 hrs by agar well diffusion method; conditions: read-out: DIZ
# Fusarium verticillioides [26] = assay: Antifungal activity against Fusarium moniliforme at 100 ug/ml after 48 hrs by agar well diffusion method
# Bacillus subtilis [27] = assay: Antibacterial activity against Bacillus subtilis at 75 ug/ml after 24 hrs by agar well diffusion method; conditions: read-out: DIZ
# Escherichia coli [28] = assay: Antibacterial activity against Escherichia coli at 25 ug/ml after 24 hrs by agar well diffusion method; conditions: read-out: DIZ
# Klebsiella pneumoniae [29] = assay: Antibacterial activity against Klebsiella pneumoniae at 75 ug/ml after 24 hrs by agar well diffusion method; conditions: read-out: DIZ
# Fusarium verticillioides [30] = assay: Antifungal activity against Fusarium moniliforme at 25 ug/ml after 48 hrs by agar well diffusion method
# Bacillus subtilis [31] = assay: Antibacterial activity against Bacillus subtilis at 50 ug/ml after 24 hrs by agar well diffusion method; conditions: read-out: DIZ
# Bacillus subtilis [32] = assay: Antibacterial activity against Bacillus subtilis at 25 ug/ml after 24 hrs by agar well diffusion method; conditions: read-out: DIZ
# Escherichia coli [33] = assay: Antibacterial activity against Escherichia coli incubated for overnight by microdilution method
# Staphylococcus aureus [34] = assay: Antibacterial activity against methicillin resistant Staphylococcus aureus MRSA090 at 75 ug/ml after 24 hrs by agar well diffusion method; conditions: MRSA090, 24 h, read-out: DIZ
# Aspergillus niger [35] = assay: Antifungal activity against Aspergillus niger at 25 ug/ml after 48 hrs by agar well diffusion method; conditions: read-out: DIZ
# Staphylococcus aureus [36] = assay: Antibacterial activity against methicillin resistant Staphylococcus aureus MRSA090 at 50 ug/ml after 24 hrs by agar well diffusion method; conditions: MRSA090, 24 h, read-out: DIZ
SMILES,zone of inhibition at 50 µg/mL (Klebsiella pneumoniae [2]) [mm],zone of inhibition at 50 µg/mL (Aspergillus niger [3]) [mm],zone of inhibition at 100 µg/mL (Escherichia coli [4]) [mm],zone of inhibition at 75 µg/mL (Aspergillus niger [6]) [mm],diameter of the inhibition zone (DIZ) (Fusarium oxysporum [7]),zone of inhibition at 50 µg/mL (Escherichia coli [8]) [mm],zone of inhibition at 25 µg/mL (Staphylococcus aureus [9]) [mm],zone of inhibition at 100 µg/mL (Klebsiella pneumoniae [10]) [mm],zone of inhibition at 25 µg/mL (Klebsiella pneumoniae [15]) [mm],zone of inhibition at 100 µg/mL (Staphylococcus aureus [17]) [mm],zone of inhibition at 100 µg/mL (Bacillus subtilis [18]) [mm],diameter of the inhibition zone (DIZ) (Fusarium oxysporum [20]),diameter of the inhibition zone (DIZ) (Fusarium oxysporum [22]),zone of inhibition at 100 µg/mL (Aspergillus niger [23]) [mm],zone of inhibition at 75 µg/mL (Escherichia coli [25]) [mm],zone of inhibition at 75 µg/mL (Bacillus subtilis [27]) [mm],zone of inhibition at 25 µg/mL (Escherichia coli [28]) [mm],zone of inhibition at 75 µg/mL (Klebsiella pneumoniae [29]) [mm],zone of inhibition at 50 µg/mL (Bacillus subtilis [31]) [mm],zone of inhibition at 25 µg/mL (Bacillus subtilis [32]) [mm],other results
COc1ccc(/C=N/Nc2nc3cccc(C)c3s2)cc1,16,11,10,14,inactive,12,10,22,14,21,26,inactive,inactive,16,15,20,10,20,18,13,diameter of the inhibition zone (DIZ) (Fusarium verticillioides [1]): inactive; zone of inhibition at 50 µg/mL (Staphylococcus aureus [5]; read-out: DIZ): 14 mm; zone of inhibition at 75 µg/mL (Staphylococcus aureus [11]; read-out: DIZ): 19 mm; diameter of the inhibition zone (DIZ) (Fusarium verticillioides [12]): inactive; MIC (Bacillus subtilis [13]): 28 mg/L; zone of inhibition at 25 µg/mL (Staphylococcus aureus [14]; read-out: DIZ): 12 mm; MIC (Staphylococcus aureus [16]): 32 mg/L; MIC (Staphylococcus aureus [19]): 30 mg/L; diameter of the inhibition zone (DIZ) (Fusarium oxysporum [21]): inactive; zone of inhibition at 100 µg/mL (Staphylococcus aureus [24]; read-out: DIZ): 24 mm; diameter of the inhibition zone (DIZ) (Fusarium verticillioides [26]): inactive; diameter of the inhibition zone (DIZ) (Fusarium verticillioides [30]): inactive; MIC (Escherichia coli [33]): 27 mg/L; zone of inhibition at 75 µg/mL (Staphylococcus aureus [34]): 16 mm; zone of inhibition at 25 µg/mL (Aspergillus niger [35]): 8 mm; zone of inhibition at 50 µg/mL (Staphylococcus aureus [36]): 13 mm
COc1ccc(/C=N/Nc2nc3cccc(C)c3s2)cc1Br,11,11,16,14,inactive,9,8,16,7,18,16,inactive,inactive,18,13,11,7,14,8,4,zone of inhibition at 75 µg/mL (Fusarium verticillioides [1]; read-out: DIZ): 13 mm; diameter of the inhibition zone (DIZ) (Staphylococcus aureus [5]): inactive; diameter of the inhibition zone (DIZ) (Staphylococcus aureus [11]): inactive; zone of inhibition at 50 µg/mL (Fusarium verticillioides [12]; read-out: DIZ): 11 mm; diameter of the inhibition zone (DIZ) (Staphylococcus aureus [14]): inactive; zone of inhibition at 100 µg/mL (Fusarium oxysporum [21]; read-out: DIZ): 10 mm; diameter of the inhibition zone (DIZ) (Staphylococcus aureus [24]): inactive; zone of inhibition at 100 µg/mL (Fusarium verticillioides [26]; read-out: DIZ): 17 mm; zone of inhibition at 25 µg/mL (Fusarium verticillioides [30]; read-out: DIZ): 7 mm; zone of inhibition at 75 µg/mL (Staphylococcus aureus [34]): 16 mm; zone of inhibition at 25 µg/mL (Aspergillus niger [35]): 8 mm; zone of inhibition at 50 µg/mL (Staphylococcus aureus [36]): 12 mm
